# Key:
# Format in all cases: biochemical
# KDM4A = KDM4A (Homo sapiens, UniProt O75164); experiment: KDM4A enzymatic assay (AlphaLISA)
# Experimental: (§1) The following assay protocol was used for all histone demethylases tested except KDM1A, KDM5A, B, and D, which are described below. Compounds were serially diluted into a 384-well Alpha plate as a DMSO solution and mixed with 5 μL reaction buffer (buffer A) containing 50 mM HEPES (pH 7.0), 0.1% BSA, and 0.003% Tween-20. The enzyme of interest was pre-incubated with 15 μM of Fe^2+ for 10 min (except 30 min for KDM2B) in reaction buffer A. 5 μL of the enzyme mixture was added to each of the compound-containing wells and incubated for 10 min. The reaction was started by addition of a 5 μL mixture containing 300 nM peptide substrate, 75 μM L-ascorbic acid, and 30 μM α-ketoglutarate in buffer A. This final 15 μL of reaction mixture was incubated for 20 min for KDM5B and 1 hour for the other KDM enzymes. The reaction was quenched with 10 μL of diluted AlphaLISA Acceptor beads (1:400) in Epigenetics Buffer and incubated for 60 min. The Donor beads were diluted 1:400 into Epigenetics Buffer in the dark and 10 μL of this was added to each well and incubated for another 60 min in the dark. The assay plates were read on an Enspire plate reader (PerkinElmer) using a standard AlphaLISA program.
# (§2) Data was analyzed using GraphPad Prism 6.0 (La Jolla, CA). […] IC50 values were calculated as an average of at least two independent experiments.
# KDM2B = target: T1, KDM2B (Homo sapiens, UniProt Q8NHM5); experiment: KDM2B enzymatic assay (AlphaLISA)
# T1 sequence (Q8NHM5 1-1336): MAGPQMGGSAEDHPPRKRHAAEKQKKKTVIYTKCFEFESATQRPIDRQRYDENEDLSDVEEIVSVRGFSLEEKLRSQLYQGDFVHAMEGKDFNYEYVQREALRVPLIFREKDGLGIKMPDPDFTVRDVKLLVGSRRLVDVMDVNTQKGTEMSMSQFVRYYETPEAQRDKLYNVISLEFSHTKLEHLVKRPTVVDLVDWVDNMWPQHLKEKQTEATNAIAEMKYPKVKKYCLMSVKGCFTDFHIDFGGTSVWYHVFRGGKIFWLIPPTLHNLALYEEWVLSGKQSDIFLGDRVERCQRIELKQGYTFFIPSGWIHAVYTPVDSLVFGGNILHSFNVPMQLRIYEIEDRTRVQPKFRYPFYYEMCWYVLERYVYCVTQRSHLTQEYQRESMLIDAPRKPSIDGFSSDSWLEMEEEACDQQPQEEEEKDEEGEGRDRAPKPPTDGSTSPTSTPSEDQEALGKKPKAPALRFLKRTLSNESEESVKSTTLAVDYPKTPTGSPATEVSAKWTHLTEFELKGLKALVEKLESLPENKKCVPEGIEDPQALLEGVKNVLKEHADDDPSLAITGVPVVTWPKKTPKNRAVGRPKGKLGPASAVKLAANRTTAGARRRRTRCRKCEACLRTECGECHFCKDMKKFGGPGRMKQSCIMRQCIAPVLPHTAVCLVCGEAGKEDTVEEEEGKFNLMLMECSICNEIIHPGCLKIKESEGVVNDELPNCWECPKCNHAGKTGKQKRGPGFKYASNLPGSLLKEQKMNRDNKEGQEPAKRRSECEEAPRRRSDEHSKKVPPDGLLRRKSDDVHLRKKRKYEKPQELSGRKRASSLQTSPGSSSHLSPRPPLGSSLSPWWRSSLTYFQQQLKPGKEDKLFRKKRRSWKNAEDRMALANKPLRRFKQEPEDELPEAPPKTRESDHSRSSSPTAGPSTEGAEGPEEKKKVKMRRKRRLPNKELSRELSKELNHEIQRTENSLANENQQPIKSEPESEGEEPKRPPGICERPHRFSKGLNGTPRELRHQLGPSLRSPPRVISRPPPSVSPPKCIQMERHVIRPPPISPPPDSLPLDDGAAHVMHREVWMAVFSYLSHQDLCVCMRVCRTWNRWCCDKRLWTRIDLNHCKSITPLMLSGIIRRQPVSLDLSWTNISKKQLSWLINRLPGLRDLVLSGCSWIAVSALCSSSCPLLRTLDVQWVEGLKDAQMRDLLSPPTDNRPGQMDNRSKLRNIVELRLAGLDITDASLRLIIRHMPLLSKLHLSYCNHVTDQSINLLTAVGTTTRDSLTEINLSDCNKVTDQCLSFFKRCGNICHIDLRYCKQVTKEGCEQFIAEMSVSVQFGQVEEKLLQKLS
# Experimental: as §1, §2
# KDM6A = KDM6A (Homo sapiens, UniProt O15550); experiment: KDM6A enzymatic assay (AlphaLISA)
# KDM6A, sequence (O15550 whole entry): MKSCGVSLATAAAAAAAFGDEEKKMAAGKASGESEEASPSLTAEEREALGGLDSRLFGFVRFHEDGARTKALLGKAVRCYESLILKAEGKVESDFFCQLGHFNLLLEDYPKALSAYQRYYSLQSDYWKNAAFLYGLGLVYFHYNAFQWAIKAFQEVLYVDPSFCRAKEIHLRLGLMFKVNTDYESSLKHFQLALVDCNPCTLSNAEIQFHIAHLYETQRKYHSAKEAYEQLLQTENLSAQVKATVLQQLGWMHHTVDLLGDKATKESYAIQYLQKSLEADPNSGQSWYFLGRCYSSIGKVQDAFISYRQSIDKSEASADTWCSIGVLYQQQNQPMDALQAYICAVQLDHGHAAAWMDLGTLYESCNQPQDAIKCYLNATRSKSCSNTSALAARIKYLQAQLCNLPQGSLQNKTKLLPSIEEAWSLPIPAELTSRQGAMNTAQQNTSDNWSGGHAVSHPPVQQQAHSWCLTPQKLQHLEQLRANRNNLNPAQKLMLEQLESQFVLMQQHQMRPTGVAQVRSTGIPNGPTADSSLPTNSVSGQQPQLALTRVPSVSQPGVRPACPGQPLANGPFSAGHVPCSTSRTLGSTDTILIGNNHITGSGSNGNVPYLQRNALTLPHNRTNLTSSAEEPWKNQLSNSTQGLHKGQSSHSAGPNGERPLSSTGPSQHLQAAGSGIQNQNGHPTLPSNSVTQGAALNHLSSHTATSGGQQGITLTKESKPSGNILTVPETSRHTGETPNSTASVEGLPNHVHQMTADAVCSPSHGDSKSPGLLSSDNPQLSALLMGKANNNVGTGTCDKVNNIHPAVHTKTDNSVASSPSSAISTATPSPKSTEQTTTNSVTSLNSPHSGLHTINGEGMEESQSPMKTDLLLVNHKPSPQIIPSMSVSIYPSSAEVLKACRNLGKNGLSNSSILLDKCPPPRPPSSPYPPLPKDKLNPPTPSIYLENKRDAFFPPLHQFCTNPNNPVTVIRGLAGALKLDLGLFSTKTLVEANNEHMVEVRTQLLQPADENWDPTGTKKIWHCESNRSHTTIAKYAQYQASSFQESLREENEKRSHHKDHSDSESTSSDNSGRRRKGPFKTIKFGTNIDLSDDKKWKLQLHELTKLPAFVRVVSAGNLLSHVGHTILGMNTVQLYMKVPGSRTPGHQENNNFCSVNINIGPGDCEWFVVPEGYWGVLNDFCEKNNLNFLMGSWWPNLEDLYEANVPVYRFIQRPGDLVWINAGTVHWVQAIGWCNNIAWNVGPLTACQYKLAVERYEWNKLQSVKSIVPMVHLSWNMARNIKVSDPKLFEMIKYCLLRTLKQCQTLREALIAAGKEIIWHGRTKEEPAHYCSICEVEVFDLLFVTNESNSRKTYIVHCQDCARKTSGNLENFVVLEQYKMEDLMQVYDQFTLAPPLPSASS
# Experimental: as §1, §2
# PRMT4 = target: T2, PRMT4 (Homo sapiens, UniProt Q86X55); experiment: Histone methyltransferase enzymatic assay, PRMT4; settings: enzyme conc. 100 nM
# T2 construct: 2-608
# T2 sequence (Q86X55 2-608): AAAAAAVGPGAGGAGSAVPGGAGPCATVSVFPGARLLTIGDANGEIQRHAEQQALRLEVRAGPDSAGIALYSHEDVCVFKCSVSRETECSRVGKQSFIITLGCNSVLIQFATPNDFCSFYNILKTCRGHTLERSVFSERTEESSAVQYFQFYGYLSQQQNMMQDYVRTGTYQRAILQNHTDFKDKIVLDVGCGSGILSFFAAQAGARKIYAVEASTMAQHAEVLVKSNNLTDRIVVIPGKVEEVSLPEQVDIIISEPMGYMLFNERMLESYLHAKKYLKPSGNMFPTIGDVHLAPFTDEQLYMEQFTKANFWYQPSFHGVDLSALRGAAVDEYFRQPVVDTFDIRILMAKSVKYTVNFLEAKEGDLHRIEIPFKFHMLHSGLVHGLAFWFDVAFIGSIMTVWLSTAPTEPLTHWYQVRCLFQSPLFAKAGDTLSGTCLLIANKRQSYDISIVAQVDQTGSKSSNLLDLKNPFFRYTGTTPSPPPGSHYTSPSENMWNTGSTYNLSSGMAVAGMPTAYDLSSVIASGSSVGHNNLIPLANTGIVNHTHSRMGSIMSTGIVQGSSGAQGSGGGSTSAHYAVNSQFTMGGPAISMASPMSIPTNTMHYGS
# Experimental: Histone methyltransferase assays were performed in 96-well half-area optiplates (PerkinElmer) at room temperature. All concentrations are final unless noted otherwise. Compounds were serially diluted in DMSO and the final DMSO concentration was 1%. A 24 μL reaction mixture contained compound, enzyme, 200 nM of nucleosome or histone substrate, 400 nM ^3H-SAM (83.1 Ci/mmol), 50 mM Tris-HCl (pH 8.0), 50 mM NaCl, 5 mM MgCl2, 1 mM DTT, and 0.01% Tween-20. The plate was sealed, mixed on a Titramax plate shaker at 1200 rpm for 30 sec, and incubated at room temperature for 60 min. The reaction was quenched by addition of 24 μL mixture containing 5 mg/mL PVT-PEI beads and 300 μM unlabeled SAM in water. The plate was sealed, mixed as previously noted, incubated overnight, and read on a TopCount plate reader (PerkinElmer).
# as §2
# SIRT-1 = target: T3, SIRT-1 (Homo sapiens, UniProt Q96EB6); experiment: SIRT-1 histone deacetylase assay (AlphaLISA); settings: enzyme conc. 5 nM
# T3 construct: 193-741; purchased BPS
# T3 sequence (Q96EB6 193-741): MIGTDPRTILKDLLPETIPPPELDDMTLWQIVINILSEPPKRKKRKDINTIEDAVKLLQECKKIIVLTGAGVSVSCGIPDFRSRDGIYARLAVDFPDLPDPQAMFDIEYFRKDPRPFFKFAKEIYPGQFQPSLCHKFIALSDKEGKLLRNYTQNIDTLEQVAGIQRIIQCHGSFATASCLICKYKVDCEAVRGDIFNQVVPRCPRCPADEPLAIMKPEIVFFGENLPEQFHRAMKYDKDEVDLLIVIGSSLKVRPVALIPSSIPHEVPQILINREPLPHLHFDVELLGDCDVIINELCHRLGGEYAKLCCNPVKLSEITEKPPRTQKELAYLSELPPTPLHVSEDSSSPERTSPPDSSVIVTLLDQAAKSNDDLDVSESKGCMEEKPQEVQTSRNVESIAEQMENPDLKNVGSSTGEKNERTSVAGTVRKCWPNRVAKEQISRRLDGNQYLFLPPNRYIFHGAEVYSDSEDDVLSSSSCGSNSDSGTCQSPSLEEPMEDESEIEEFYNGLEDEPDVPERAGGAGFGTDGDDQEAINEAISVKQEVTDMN
# Experimental: The assay plates were read on an Enspire plate reader (PerkinElmer) using a standard AlphaLISA program.
# as §2
# KDM4A, sequence (O75164 whole entry): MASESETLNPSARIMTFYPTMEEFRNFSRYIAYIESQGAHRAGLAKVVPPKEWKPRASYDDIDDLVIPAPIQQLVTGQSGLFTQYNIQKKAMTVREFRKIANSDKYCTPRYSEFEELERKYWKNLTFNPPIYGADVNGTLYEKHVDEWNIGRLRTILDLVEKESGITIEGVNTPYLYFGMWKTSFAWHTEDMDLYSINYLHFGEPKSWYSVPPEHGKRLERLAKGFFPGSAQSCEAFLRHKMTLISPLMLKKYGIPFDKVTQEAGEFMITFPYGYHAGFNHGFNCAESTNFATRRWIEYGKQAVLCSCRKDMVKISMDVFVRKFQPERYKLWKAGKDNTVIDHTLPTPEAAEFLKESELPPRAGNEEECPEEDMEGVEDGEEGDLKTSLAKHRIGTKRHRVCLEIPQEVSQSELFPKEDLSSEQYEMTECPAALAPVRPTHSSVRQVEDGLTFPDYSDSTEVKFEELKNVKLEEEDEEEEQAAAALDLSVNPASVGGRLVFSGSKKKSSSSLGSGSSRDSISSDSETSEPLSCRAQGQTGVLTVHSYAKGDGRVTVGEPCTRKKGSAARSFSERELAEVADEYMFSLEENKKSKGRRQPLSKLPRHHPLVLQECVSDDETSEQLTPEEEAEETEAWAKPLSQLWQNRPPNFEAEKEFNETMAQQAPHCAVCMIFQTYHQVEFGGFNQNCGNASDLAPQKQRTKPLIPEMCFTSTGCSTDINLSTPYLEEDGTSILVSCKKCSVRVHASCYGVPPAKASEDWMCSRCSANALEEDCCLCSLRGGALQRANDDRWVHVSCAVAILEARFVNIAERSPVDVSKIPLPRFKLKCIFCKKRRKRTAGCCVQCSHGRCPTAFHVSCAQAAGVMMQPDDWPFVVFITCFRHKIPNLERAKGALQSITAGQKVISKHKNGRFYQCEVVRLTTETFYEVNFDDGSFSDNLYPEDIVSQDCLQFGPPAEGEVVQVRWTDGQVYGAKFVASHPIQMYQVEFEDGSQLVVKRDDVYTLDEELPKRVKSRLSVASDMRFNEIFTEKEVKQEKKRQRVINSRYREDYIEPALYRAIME
smiles,measurement,setting,value
CCN(CCN(C)C)C(=O)CNCc1cc(C(=O)O)ccn1 [GS-080],Fold Selectivity Compared to KDM5A,KDM4A; IC50 of KDM4A over KDM5A,20 fold
same,IC50,KDM4A; enzyme concentration 0.2 nM,0.0072 µM
same,Fold Selectivity Compared to KDM5A,KDM2B; IC50 of KDM2B over KDM5A,"> 1,720 fold"
same,IC50,KDM2B; enzyme concentration 2 nM,0.62 µM
same,Fold Selectivity Compared to KDM5A,KDM6A; IC50 of KDM6A over KDM5A,"> 17,200 fold"
same,IC50,KDM6A; enzyme concentration 2 nM,6.2 µM
same,IC50,PRMT4,> 100 µM
same,IC50,SIRT-1,> 100 µM
